Experimental data taken from patent US5593960A, “Cyclic heptapeptide anti-inflammatory agent” (The Regents of the University of California, priority 1995, dated 1997).

Tested on: phorbol-induced inflammation (edema) of mouse ears
Experiment: Inhibition of Mouse Ear Edema - Standard Protocol (topical, PMA-induced)
Assay type: in vivo
Settings: for Inhibition of mouse ear edema: relative to PMA control
Experimental: Cyclomarin-A was tested by measuring inhibition of phorbol-induced inflammation (edema) of mouse ears. […] The compound is topically applied in acetone to the inside pinnae of the ears of mice in a solution containing the edema-causing irritant, i.e. phorbol 12-myristate 13-acetate (PMA). PMA alone (2 microgram per ear) or in combination with varying amounts of cyclomarin-A was applied to the left ears of (5 mice per treatment group). Acetone was applied to all right ears. After a 3-hour and 20-minute incubation at 23° C., the mice were sacrificed, the ears removed and bores taken and weighed. Edema was measured by subtracting the weight of the right ear (acetone control) from the weight of the left ear (treated). The results were recorded as a percent decrease (inhibition) or percent increase (potentiation) in edema relative to the PMA control group edema.

cyclomarin-A
Inhibition of mouse ear edema (5 ug/ear with PMA 2 microgram per ear): 3.0% | Inhibition of mouse ear edema (10 ug/ear with PMA 2 microgram per ear): 39.0% | Inhibition of mouse ear edema (25 ug/ear with PMA 2 microgram per ear): 57.0% | Inhibition of mouse ear edema (50 ug/ear with PMA 2 microgram per ear): 88.0% | topical anti-inflammatory activity (general statement): exhibit topical anti-inflammatory activity
